# According to ChEMBL document CHEMBL4507294, “Data for DCP probe MSD-CYP11B2” (2021):
# pKi: −log10 of the molar value.
# Legend:
# [1] = target: AP2-associated protein kinase 1 (Homo sapiens) (UniProt Q2M2I8); settings: Compound concentration 1000.0 nM
# [2] = test system: Tyrosine-protein kinase ABL1 (Homo sapiens), P00519 [F317I]; settings: Compound concentration 1000.0 nM
# [3] = target: Tyrosine-protein kinase ABL1 (Homo sapiens) (UniProt P00519); settings: Compound concentration 1000.0 nM
# [4] = target: RAC-gamma serine/threonine-protein kinase (Homo sapiens) (UniProt Q9Y243); settings: Compound concentration 1000.0 nM
# [5] = test system: ALK tyrosine kinase receptor (Homo sapiens), Q9UM73 [L1196M]; settings: Compound concentration 1000.0 nM
# [6] = target: Calcium/calmodulin-dependent protein kinase type IV (Homo sapiens) (UniProt Q16566); settings: Compound concentration 1000.0 nM
# [7] = target: Cyclin-dependent kinase 7 (Homo sapiens) (UniProt P50613); settings: Compound concentration 1000.0 nM
# [8] = target: Dual specificity protein kinase CLK3 (Homo sapiens) (UniProt P49761); settings: Compound concentration 1000.0 nM
# [9] = target: Serine/threonine-protein kinase DCLK3 (Homo sapiens) (UniProt Q9C098); settings: Compound concentration 1000.0 nM
# [10] = test system: Epidermal growth factor receptor (Homo sapiens), P00533 [G719C]; settings: Compound concentration 1000.0 nM
# [11] = target: Ephrin type-A receptor 5 (Homo sapiens) (UniProt P54756); settings: Compound concentration 1000.0 nM
# [12] = target: Ephrin type-B receptor 1 (Homo sapiens) (UniProt P54762); settings: Compound concentration 1000.0 nM
# [13] = target: Ephrin type-B receptor 4 (Homo sapiens) (UniProt P54760); settings: Compound concentration 1000.0 nM
# [14] = target: Fibroblast growth factor receptor 4 (Homo sapiens) (UniProt P22455); settings: Compound concentration 1000.0 nM
# Fibroblast growth factor receptor 4 (Homo sapiens), sequence (P22455 22-802 limits assumed): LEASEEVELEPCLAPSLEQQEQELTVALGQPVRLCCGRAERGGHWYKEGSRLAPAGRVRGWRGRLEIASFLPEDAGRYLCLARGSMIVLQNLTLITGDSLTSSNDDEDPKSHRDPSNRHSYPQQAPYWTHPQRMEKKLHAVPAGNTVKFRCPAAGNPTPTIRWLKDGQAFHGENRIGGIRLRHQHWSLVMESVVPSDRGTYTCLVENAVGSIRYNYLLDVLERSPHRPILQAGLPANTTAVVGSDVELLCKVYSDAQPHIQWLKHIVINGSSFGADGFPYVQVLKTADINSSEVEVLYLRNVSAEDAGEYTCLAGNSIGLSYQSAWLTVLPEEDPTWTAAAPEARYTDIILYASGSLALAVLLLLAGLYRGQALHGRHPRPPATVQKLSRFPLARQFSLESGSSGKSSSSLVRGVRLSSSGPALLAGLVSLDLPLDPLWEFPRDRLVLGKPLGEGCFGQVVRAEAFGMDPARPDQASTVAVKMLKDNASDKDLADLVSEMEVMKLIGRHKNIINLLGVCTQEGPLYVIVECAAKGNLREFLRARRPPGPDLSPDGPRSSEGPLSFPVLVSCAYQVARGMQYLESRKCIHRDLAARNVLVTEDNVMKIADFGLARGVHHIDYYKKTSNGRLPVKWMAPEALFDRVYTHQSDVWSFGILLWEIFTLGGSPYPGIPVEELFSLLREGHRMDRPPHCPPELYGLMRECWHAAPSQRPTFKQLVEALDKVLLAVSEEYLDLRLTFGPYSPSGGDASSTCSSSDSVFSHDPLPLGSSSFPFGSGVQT
# [15] = target: G protein-coupled receptor kinase 3 (Homo sapiens) (UniProt P35626); settings: Compound concentration 1000.0 nM
# [16] = target: Tyrosine-protein kinase HCK (Homo sapiens) (UniProt P08631); settings: Compound concentration 1000.0 nM
# Tyrosine-protein kinase HCK (Homo sapiens), sequence (P08631 2-526 limits assumed): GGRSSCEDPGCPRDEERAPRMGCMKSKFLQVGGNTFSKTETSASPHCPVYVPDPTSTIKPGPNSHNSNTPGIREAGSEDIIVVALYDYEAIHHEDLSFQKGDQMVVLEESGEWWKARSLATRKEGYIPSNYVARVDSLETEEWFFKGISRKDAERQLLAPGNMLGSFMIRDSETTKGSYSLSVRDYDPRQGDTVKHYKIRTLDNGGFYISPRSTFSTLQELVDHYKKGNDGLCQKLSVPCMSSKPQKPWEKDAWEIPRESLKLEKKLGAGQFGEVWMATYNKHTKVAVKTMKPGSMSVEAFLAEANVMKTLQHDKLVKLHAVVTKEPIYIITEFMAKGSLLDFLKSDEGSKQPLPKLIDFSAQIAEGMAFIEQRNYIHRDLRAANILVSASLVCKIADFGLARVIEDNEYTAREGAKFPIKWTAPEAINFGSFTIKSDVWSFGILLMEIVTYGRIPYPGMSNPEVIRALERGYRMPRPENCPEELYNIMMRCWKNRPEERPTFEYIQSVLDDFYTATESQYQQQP
# [17] = target: Tyrosine-protein kinase JAK2 (Homo sapiens) (UniProt O60674); settings: Compound concentration 1000.0 nM
# [18] = test system: Mast/stem cell growth factor receptor Kit (Homo sapiens), P10721 [V559D,V654A]; settings: Compound concentration 1000.0 nM
# Mast/stem cell growth factor receptor Kit (Homo sapiens), P10721 [V559D,V654A], sequence (P10721 whole entry V559D/V654A): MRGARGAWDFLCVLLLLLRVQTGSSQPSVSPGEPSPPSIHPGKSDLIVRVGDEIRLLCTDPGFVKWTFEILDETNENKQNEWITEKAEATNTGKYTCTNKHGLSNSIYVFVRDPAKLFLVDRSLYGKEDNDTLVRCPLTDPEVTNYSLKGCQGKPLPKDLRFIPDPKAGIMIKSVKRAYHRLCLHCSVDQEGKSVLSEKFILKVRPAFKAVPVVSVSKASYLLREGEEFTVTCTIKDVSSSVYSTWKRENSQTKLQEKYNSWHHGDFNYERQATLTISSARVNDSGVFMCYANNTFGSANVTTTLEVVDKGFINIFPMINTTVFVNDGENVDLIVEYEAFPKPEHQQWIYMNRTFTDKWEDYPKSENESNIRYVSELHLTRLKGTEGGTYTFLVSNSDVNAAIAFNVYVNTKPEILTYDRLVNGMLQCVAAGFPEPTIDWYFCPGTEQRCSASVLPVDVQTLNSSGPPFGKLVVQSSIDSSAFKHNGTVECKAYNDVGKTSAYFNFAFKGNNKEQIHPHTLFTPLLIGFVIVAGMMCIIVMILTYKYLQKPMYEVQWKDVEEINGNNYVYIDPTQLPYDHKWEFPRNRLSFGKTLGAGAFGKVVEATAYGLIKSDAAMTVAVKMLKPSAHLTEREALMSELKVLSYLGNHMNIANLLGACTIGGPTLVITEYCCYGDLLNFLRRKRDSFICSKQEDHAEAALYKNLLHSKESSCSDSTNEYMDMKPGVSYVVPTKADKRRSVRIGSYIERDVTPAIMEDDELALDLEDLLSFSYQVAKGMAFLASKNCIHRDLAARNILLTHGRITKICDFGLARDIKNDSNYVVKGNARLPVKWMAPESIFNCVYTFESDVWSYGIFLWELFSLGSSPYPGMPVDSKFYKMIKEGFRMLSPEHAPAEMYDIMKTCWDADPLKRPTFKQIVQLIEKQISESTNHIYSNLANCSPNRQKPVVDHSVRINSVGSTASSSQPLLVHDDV
# [19] = target: Serine/threonine-protein kinase LATS2 (Homo sapiens) (UniProt Q9NRM7); settings: Compound concentration 1000.0 nM
# Serine/threonine-protein kinase LATS2 (Homo sapiens), sequence (Q9NRM7 whole entry): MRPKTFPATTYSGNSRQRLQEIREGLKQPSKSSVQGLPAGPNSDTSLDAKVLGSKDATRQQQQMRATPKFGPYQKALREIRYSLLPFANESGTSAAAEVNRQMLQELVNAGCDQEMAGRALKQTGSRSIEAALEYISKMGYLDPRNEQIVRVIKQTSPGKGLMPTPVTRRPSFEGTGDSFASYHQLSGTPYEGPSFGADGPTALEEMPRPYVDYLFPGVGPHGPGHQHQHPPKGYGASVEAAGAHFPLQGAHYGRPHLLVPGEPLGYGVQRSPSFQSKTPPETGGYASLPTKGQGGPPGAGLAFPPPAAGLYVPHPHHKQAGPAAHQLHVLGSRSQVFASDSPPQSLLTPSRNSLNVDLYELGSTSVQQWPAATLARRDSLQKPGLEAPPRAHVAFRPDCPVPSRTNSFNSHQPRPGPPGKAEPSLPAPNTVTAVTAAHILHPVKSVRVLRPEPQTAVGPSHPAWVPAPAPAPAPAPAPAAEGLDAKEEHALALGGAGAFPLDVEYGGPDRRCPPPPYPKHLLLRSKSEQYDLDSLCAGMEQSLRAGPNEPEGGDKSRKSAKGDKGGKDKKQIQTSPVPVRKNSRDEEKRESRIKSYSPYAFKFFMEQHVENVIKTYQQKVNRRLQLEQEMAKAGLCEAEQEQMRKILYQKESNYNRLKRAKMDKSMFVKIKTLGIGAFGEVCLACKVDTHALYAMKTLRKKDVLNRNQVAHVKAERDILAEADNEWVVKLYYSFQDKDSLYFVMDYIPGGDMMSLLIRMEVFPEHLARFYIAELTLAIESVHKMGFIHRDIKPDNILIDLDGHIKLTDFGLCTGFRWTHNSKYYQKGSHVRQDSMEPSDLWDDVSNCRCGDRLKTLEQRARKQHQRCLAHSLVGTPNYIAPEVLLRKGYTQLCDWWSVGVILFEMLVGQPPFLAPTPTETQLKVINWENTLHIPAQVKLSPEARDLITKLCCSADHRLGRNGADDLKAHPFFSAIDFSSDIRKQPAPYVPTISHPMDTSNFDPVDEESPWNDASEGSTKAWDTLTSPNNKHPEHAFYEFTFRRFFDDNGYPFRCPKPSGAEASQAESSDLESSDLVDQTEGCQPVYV
# [20] = target: Serine/threonine-protein kinase 10 (Homo sapiens) (UniProt O94804); settings: Compound concentration 1000.0 nM
# [21] = test system: Leucine-rich repeat serine/threonine-protein kinase 2 (Homo sapiens), Q5S007 [G2019S]; settings: Compound concentration 1000.0 nM
# [22] = target: Mitogen-activated protein kinase kinase kinase kinase 3 (Homo sapiens) (UniProt Q8IVH8); settings: Compound concentration 1000.0 nM
# [23] = target: Dual specificity mitogen-activated protein kinase kinase 2 (Homo sapiens) (UniProt P36507); settings: Compound concentration 1000.0 nM
# [24] = target: Dual specificity mitogen-activated protein kinase kinase 3 (Homo sapiens) (UniProt P46734); settings: Compound concentration 1000.0 nM
# [25] = target: Serine/threonine-protein kinase 24 (Homo sapiens) (UniProt Q9Y6E0); settings: Compound concentration 1000.0 nM
# [26] = target: Serine/threonine-protein kinase 38-like (Homo sapiens) (UniProt Q9Y2H1); settings: Compound concentration 1000.0 nM
# [27] = target: Mitogen-activated protein kinase kinase kinase 14 (Homo sapiens) (UniProt Q99558); settings: Compound concentration 1000.0 nM
# [28] = target: Serine/threonine-protein kinase PAK 6 (Homo sapiens) (UniProt Q9NQU5); settings: Compound concentration 1000.0 nM
# [29] = target: Cyclin-dependent kinase 18 (Homo sapiens) (UniProt Q07002); settings: Compound concentration 1000.0 nM
# [30] = target: Platelet-derived growth factor receptor beta (Homo sapiens) (UniProt P09619); settings: Compound concentration 1000.0 nM
# [31] = target: Phosphatidylinositol 4-phosphate 3-kinase C2 domain-containing subunit beta (Homo sapiens) (UniProt O00750); settings: Compound concentration 1000.0 nM
# [32] = target: Serine/threonine-protein kinase pim-3 (Homo sapiens) (UniProt Q86V86); settings: Compound concentration 1000.0 nM
# [33] = target: Serine/threonine-protein kinase PknB (Mycobacterium tuberculosis) (UniProt P9WI81); settings: Compound concentration 1000.0 nM
# [34] = target: Serine/threonine-protein kinase D3 (Homo sapiens) (UniProt O94806); settings: Compound concentration 1000.0 nM
# Serine/threonine-protein kinase D3 (Homo sapiens), sequence (O94806 whole entry): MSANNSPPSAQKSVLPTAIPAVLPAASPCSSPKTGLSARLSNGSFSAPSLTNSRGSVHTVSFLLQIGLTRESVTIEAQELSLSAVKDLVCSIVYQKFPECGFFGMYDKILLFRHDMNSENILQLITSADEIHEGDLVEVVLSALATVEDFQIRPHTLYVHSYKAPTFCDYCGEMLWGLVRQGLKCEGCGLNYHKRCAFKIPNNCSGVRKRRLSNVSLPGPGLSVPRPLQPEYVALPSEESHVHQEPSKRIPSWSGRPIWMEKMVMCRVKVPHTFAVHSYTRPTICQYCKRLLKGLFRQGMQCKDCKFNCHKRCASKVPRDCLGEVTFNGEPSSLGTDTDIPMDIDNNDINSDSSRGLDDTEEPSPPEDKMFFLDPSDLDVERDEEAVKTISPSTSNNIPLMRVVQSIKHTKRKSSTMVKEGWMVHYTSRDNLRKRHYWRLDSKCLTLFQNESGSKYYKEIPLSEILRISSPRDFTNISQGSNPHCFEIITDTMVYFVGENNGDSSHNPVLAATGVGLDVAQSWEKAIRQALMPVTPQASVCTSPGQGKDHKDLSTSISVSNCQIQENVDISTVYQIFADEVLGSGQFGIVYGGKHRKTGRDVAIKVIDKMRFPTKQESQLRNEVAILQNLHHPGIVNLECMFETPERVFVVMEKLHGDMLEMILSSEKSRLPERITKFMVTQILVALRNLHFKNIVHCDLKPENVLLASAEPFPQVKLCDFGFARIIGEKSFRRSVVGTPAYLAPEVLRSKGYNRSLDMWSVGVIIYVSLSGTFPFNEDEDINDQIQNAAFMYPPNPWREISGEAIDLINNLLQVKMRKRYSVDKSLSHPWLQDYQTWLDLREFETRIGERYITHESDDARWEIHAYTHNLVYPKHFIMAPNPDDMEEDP
# [35] = target: cGMP-dependent protein kinase 1 (Homo sapiens) (UniProt Q13976); settings: Compound concentration 1000.0 nM
# [36] = target: Protein-tyrosine kinase 2-beta (Homo sapiens) (UniProt Q14289); settings: Compound concentration 1000.0 nM
# [37] = target: Ribosomal protein S6 kinase alpha-5 (Homo sapiens) (UniProt O75582); settings: Compound concentration 1000.0 nM
# [38] = target: SRSF protein kinase 3 (Homo sapiens) (UniProt Q9UPE1); settings: Compound concentration 1000.0 nM
# [39] = target: Non-receptor tyrosine-protein kinase TYK2 (Homo sapiens) (UniProt P29597); settings: Compound concentration 1000.0 nM
# [40] = target: D(1B) dopamine receptor (Homo sapiens) (UniProt P21918); settings: Compound concentration 10.0 uM
# [41] = target: Sodium-dependent noradrenaline transporter (Homo sapiens) (UniProt P23975); settings: Compound concentration 10.0 uM
# [42] = target: Alpha-2A adrenergic receptor (Homo sapiens, UniProt P08913); test: GPCRScan assay: inhibition of Alpha2A; set-up: radioligand conc. used [nm] 1.0 – 3.0, parental cells stable MDCK
# [43] = target: Adenosine receptor A1 (Homo sapiens) (UniProt P30542); settings: Compound concentration 10.0 uM
# [44] = target: Beta-1 adrenergic receptor (Homo sapiens, UniProt P08588)
# Beta-1 adrenergic receptor, sequence (P08588 whole entry, looked up): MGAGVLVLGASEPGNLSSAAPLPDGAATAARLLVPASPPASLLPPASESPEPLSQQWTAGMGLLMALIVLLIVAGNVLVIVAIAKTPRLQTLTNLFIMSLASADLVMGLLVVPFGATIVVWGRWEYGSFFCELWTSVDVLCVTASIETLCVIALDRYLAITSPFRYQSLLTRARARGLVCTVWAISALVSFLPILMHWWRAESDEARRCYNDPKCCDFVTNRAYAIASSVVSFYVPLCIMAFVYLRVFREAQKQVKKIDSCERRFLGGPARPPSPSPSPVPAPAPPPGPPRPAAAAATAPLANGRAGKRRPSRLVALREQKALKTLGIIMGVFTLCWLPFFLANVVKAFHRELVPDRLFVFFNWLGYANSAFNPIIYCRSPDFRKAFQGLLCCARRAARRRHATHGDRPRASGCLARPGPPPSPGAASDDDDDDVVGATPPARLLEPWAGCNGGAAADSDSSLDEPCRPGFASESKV
compound,measurement,setting,value
FC(F)(F)c1ccc2c(c1)nc(-c1cccnc1)n2C1CC1 [MSD-CYP11B2-Negative-control],residual activity,[1],100%
same,residual activity,[2],100%
same,residual activity,[3],91%
same,residual activity,[4],100%
same,residual activity,[5],100%
same,residual activity,[6],100%
same,residual activity,[7],100%
same,residual activity,[8],100%
same,residual activity,[9],100%
same,residual activity,[10],92%
same,residual activity,[11],96%
same,residual activity,[12],100%
same,residual activity,[13],100%
same,residual activity,[14],100%
same,residual activity,[15],76%
same,residual activity,[16],100%
same,residual activity,[17],100%
same,residual activity,[18],100%
same,residual activity,[19],100%
same,residual activity,[20],100%
same,residual activity,[21],100%
same,residual activity,[22],100%
same,residual activity,[23],100%
same,residual activity,[24],100%
same,residual activity,[25],100%
same,residual activity,[26],100%
same,residual activity,[27],100%
same,residual activity,[28],100%
same,residual activity,[29],100%
same,residual activity,[30],100%
same,residual activity,[31],100%
same,residual activity,[32],100%
same,residual activity,[33],100%
same,residual activity,[34],100%
same,residual activity,[35],87%
same,residual activity,[36],100%
same,residual activity,[37],100%
same,residual activity,[38],100%
same,residual activity,[39],100%
same,inhibition,[40],22.5%
same,inhibition,[41],17.2%
CC(C)(O)c1cncc(-c2nc3ccc(F)cc3n2C2CC2)c1 [MSD-CYP11B2],pKi,[42],5.58
same,residual activity,[1],100%
same,residual activity,[2],100%
same,residual activity,[3],89%
same,residual activity,[4],100%
same,residual activity,[5],100%
same,residual activity,[6],100%
same,residual activity,[7],88%
same,residual activity,[8],100%
same,residual activity,[9],100%
same,residual activity,[10],100%
same,residual activity,[11],100%
same,residual activity,[12],100%
same,residual activity,[13],100%
same,residual activity,[14],100%
same,residual activity,[15],79%
same,residual activity,[16],100%
same,residual activity,[17],100%
same,residual activity,[18],87%
same,residual activity,[19],100%
same,residual activity,[20],100%
same,residual activity,[21],100%
same,residual activity,[22],100%
same,residual activity,[23],100%
same,residual activity,[24],100%
same,residual activity,[25],100%
same,residual activity,[26],100%
same,residual activity,[27],100%
same,residual activity,[28],100%
same,residual activity,[29],100%
same,residual activity,[30],100%
same,residual activity,[31],95%
same,residual activity,[32],98%
same,residual activity,[33],100%
same,residual activity,[34],100%
same,residual activity,[35],78%
same,residual activity,[36],100%
same,residual activity,[37],100%
same,residual activity,[38],100%
same,residual activity,[39],94%
same,inhibition,[40],21%
same,inhibition,[41],2.3%
same,inhibition,[43],20%
same,inhibition,[44]; Compound concentration 0.01 uM,5%
same,inhibition,[44]; Compound concentration 0.1 uM,-1%
same,inhibition,[44]; Compound concentration 1.0 uM,9%
same,inhibition,[44]; Compound concentration 10.0 uM,51%
